Experiment [1] has as its target T1, Mitogen-activated protein kinase kinase kinase 5 (Homo sapiens, UniProt Q99683).
T1 sequence (Q99683 whole entry): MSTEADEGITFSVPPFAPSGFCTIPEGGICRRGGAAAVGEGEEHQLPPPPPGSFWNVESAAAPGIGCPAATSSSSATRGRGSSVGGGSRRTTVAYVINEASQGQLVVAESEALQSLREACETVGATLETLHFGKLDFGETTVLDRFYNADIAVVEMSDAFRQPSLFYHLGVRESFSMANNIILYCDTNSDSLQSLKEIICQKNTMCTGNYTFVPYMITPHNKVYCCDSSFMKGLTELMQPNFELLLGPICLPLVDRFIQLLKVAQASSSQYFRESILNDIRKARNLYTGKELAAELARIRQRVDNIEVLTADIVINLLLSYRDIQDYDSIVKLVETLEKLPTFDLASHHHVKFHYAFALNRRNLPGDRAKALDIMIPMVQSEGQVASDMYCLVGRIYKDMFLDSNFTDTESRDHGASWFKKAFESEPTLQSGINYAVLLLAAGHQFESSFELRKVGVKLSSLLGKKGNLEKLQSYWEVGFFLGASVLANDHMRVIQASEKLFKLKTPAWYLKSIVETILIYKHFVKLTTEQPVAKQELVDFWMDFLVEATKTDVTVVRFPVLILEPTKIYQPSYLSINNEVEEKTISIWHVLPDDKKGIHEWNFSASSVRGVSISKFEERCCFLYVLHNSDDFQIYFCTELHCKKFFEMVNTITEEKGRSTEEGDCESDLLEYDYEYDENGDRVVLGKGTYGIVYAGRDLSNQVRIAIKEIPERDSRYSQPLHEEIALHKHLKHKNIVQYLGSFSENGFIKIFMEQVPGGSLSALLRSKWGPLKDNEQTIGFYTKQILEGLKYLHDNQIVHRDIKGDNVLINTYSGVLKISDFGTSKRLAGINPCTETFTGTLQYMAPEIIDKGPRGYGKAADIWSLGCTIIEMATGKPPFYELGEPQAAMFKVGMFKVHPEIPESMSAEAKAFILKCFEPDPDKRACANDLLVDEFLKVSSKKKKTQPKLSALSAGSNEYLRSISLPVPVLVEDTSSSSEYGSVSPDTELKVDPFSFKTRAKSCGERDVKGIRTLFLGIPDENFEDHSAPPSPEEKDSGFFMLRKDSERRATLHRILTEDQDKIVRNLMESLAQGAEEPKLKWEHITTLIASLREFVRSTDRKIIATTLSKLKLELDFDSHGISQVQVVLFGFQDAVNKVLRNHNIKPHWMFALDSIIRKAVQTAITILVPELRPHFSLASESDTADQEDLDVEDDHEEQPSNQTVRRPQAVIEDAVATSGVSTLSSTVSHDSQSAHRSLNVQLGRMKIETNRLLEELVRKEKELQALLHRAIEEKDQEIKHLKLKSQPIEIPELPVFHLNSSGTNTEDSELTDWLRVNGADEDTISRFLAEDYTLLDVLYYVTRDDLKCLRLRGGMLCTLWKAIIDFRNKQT
As to the kind of experiment: Inhibition of ASK1 (unknown origin) using biotin-MBP as substrate after 20 mins by TR-FRET assay.

The target in experiment [2] is T2, Mitogen-activated protein kinase kinase kinase 5 (Homo sapiens) (UniProt Q99683).
T2 sequence (whole entry): T1 sequence (Q99683 whole entry)
As to the kind of experiment: Inhibition of ASK1 (unknown origin) at 500 uM using biotin-MBP as substrate after 20 mins by TR-FRET assay relative to control. (Time-resolved FRET reads energy transfer from a long-lived donor to a nearby acceptor.)

For experiment [3], the target named is T1, Mitogen-activated protein kinase kinase kinase 5. As to the kind of experiment: Inhibition of ASK1 (unknown origin) assessed as reduction in JNK phosphorylation by cell based assay.
Experiment [4] has as its target Glycogen synthase kinase-3 beta (Homo sapiens, UniProt P49841). As to the kind of experiment: Inhibition of recombinant full length human His-tagged GSK3B expressed in baculovirus expression system.
For experiment [5], the target named is T3, Tyrosine-protein kinase ITK/TSK (Homo sapiens, UniProt Q08881).
T3 sequence (Q08881 whole entry): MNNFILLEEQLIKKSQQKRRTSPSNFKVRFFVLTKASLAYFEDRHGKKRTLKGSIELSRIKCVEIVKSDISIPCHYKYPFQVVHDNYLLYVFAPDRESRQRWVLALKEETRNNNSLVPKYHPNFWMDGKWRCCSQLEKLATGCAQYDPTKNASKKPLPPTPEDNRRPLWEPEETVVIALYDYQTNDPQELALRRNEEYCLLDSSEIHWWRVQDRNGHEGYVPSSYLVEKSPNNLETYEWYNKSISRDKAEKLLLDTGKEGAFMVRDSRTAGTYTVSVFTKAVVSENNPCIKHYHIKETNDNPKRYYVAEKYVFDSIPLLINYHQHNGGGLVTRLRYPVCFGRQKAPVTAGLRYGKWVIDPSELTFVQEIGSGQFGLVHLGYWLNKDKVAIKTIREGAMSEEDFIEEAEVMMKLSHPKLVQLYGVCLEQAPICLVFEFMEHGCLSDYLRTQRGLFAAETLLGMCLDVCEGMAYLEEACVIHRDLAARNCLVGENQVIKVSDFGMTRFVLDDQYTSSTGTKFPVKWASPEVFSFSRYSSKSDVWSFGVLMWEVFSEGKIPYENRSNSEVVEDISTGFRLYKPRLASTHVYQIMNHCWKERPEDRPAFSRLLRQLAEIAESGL
As to the kind of experiment: Inhibition of recombinant full length human GST-tagged ITK expressed in baculovirus expression system.

In another experiment the target is MAP kinase p38 (Homo sapiens, UniProt O15264+Q15759+Q16539+P53778). As to the kind of experiment: Inhibition of MAPK p38 (unknown origin).
Experiment [6] has as its target Proto-oncogene tyrosine-protein kinase receptor Ret (Homo sapiens, UniProt P07949). The experiment can be described thus: Inhibition of recombinant human GST-tagged RET cytoplasmic domain expressed in baculovirus expression system.
For experiment [7], the target named is Receptor tyrosine-protein kinase erbB-4 (Homo sapiens, UniProt Q15303). As to the kind of experiment: Inhibition of recombinant human N-terminal GST-tagged ERBB4 cytoplasmic domain (708 to 993 residues) expressed in baculovirus expression system.
The target in experiment [8] is 5'-AMP-activated protein kinase catalytic subunit alpha-1 (Homo sapiens, UniProt Q13131). As to the kind of experiment: Inhibition of PRKAA1 (unknown origin).
Experiment [9] has as its target Cyclin-dependent kinase 2 (Homo sapiens, UniProt P24941). The experiment can be described thus: Inhibition of CDK2 (unknown origin).
In experiment [10] the target is Macrophage-stimulating protein receptor (Homo sapiens, UniProt Q04912). As to the kind of experiment: Inhibition of recombinant human GST-tagged RON cytoplasmic domain expressed in baculovirus expression system.
Experiment [11] has as its target T4, Tyrosine-protein kinase Mer (Homo sapiens, UniProt Q12866).
T4 sequence (Q12866 whole entry): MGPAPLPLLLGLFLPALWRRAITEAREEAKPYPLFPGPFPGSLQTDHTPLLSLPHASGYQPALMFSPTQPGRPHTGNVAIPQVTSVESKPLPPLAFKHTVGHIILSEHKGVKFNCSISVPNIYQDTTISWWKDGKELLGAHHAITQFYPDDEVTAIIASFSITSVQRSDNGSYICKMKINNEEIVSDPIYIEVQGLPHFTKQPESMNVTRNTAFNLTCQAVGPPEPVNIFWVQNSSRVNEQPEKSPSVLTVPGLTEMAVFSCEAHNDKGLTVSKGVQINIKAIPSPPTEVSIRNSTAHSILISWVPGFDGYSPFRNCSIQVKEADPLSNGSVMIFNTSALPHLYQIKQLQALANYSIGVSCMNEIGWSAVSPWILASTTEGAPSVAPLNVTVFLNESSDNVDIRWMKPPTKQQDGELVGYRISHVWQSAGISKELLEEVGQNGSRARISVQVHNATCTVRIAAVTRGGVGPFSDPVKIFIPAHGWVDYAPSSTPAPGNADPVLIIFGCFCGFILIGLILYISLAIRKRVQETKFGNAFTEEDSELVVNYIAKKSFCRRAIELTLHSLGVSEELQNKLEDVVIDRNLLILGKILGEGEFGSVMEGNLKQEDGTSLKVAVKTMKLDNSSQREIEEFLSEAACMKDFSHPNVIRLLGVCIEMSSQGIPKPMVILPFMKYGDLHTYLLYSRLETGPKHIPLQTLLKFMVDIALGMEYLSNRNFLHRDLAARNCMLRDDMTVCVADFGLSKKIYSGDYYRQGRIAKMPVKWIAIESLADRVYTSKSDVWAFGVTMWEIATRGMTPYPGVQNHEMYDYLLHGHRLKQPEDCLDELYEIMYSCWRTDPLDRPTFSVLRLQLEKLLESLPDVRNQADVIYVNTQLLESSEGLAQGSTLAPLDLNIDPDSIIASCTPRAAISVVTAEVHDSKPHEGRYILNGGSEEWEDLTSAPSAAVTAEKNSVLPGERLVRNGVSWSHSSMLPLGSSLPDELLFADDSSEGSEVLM
As to the kind of experiment: Inhibition of recombinant human GST-tagged MER cytoplasmic domain expressed in baculovirus expression system.

For experiment [12], the target named is Rho-associated protein kinase 1 (Homo sapiens, UniProt Q13464). As to the kind of experiment: Inhibition of recombinant human GST-tagged ROCK1 catalytic domain expressed in baculovirus expression system.
Experiment [13] addresses Epidermal growth factor receptor (Homo sapiens, UniProt P00533). The experiment can be described thus: Inhibition of recombinant human GST-tagged EGFR cytoplasmic domain (668 to 1210 residues) expressed in baculovirus expression system.
In another experiment the target is T5, Ephrin type-A receptor 3 (Homo sapiens, UniProt P29320).
T5 sequence (P29320 whole entry): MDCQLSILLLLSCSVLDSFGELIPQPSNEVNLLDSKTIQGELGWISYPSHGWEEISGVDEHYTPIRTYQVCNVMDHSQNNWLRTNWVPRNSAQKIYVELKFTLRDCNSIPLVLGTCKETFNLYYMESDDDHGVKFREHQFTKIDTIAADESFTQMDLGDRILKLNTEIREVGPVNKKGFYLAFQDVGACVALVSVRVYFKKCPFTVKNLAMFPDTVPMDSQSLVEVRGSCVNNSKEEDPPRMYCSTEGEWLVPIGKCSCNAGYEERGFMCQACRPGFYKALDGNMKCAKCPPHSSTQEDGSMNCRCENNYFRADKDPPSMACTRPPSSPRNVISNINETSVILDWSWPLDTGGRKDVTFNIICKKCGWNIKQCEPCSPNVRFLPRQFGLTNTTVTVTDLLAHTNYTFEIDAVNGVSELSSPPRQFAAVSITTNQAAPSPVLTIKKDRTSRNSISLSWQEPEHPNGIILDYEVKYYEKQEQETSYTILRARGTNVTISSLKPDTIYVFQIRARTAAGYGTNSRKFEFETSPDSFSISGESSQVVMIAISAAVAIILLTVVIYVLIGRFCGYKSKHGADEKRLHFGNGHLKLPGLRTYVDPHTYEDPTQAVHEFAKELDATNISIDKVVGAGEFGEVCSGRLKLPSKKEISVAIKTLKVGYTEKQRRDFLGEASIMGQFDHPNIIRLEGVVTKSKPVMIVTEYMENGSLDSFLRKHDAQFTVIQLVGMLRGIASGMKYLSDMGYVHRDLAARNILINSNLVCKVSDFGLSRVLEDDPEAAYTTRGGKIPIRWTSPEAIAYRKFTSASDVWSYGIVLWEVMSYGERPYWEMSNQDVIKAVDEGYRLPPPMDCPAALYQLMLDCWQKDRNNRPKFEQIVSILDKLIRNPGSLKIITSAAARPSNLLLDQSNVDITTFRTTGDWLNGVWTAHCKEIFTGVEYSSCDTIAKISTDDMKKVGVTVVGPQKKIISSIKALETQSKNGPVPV
As to the kind of experiment: Inhibition of recombinant human His-tagged EPHA3 cytoplasmic domain (569 to 976 residues) expressed in baculovirus expression system.

Molecules are shown by their SMILES.

Macrophage-stimulating protein receptor, sequence (Q04912 25-304 limits assumed): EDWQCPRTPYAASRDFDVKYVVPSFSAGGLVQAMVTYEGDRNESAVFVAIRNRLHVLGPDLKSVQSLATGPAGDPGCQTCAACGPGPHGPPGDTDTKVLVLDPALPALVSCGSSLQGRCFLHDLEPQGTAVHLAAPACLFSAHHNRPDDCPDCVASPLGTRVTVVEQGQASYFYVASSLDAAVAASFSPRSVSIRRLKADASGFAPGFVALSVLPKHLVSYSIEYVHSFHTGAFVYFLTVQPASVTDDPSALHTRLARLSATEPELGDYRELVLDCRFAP
Macrophage-stimulating protein receptor, sequence (Q04912 310-1400 limits assumed): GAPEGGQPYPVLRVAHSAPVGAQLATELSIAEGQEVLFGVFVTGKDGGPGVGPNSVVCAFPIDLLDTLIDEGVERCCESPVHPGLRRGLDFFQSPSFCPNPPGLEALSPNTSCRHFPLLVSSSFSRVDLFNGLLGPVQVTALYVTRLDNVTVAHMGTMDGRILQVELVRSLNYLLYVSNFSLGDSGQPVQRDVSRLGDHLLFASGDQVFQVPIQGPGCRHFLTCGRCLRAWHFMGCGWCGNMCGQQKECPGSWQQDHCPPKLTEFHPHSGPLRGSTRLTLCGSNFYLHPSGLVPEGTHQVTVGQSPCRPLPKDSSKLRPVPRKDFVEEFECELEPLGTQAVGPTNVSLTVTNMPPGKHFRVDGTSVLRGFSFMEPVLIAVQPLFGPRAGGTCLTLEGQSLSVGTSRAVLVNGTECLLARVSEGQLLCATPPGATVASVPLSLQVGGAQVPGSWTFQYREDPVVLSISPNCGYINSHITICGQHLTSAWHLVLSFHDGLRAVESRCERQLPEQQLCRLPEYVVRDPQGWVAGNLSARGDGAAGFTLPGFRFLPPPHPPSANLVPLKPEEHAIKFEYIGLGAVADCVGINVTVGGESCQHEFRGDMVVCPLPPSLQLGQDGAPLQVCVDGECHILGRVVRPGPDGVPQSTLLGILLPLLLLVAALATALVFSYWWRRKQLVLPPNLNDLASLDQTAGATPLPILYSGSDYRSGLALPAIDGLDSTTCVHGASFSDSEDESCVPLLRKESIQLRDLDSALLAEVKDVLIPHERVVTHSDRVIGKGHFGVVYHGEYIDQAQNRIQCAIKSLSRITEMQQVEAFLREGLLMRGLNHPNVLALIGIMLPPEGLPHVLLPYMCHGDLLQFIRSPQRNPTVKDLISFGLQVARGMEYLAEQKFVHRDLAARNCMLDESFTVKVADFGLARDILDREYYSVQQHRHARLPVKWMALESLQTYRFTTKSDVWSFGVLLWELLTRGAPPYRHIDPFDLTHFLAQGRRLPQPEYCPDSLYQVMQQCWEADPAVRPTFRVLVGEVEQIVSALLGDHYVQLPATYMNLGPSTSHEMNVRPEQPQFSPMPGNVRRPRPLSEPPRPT
Epidermal growth factor receptor, sequence (P00533 whole entry, the tested form may be a part): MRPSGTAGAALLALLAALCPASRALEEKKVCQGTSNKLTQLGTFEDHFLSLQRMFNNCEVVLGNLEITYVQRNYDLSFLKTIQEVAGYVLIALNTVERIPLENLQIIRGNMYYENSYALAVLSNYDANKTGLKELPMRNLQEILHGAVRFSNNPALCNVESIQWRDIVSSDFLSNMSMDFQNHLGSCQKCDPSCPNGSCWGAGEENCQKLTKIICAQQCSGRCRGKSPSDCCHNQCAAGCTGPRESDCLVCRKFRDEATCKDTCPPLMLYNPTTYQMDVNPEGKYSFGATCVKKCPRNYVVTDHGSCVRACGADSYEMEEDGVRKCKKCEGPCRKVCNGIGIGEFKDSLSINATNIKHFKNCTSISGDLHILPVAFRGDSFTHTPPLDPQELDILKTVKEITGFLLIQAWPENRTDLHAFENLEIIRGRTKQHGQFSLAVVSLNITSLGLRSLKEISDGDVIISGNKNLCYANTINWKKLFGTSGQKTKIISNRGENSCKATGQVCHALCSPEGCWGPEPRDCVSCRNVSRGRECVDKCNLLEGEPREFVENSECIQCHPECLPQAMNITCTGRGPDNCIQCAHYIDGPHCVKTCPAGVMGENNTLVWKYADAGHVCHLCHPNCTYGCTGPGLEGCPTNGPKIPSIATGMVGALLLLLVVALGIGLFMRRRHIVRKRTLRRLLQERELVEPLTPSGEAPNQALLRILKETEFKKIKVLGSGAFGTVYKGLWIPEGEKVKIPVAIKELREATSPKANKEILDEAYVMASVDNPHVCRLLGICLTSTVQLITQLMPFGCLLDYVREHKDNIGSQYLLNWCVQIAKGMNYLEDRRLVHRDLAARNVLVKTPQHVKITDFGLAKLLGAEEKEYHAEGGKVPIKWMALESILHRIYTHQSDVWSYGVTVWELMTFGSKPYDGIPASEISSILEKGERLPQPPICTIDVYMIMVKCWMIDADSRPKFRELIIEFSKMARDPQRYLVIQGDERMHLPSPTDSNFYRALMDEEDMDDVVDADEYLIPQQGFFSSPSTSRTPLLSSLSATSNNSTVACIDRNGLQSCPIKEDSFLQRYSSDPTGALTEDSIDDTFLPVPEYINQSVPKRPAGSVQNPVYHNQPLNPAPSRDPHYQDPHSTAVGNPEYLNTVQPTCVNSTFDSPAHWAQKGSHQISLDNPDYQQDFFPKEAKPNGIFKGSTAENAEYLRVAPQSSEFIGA
5'-AMP-activated protein kinase catalytic subunit alpha-1, sequence (Q13131 whole entry): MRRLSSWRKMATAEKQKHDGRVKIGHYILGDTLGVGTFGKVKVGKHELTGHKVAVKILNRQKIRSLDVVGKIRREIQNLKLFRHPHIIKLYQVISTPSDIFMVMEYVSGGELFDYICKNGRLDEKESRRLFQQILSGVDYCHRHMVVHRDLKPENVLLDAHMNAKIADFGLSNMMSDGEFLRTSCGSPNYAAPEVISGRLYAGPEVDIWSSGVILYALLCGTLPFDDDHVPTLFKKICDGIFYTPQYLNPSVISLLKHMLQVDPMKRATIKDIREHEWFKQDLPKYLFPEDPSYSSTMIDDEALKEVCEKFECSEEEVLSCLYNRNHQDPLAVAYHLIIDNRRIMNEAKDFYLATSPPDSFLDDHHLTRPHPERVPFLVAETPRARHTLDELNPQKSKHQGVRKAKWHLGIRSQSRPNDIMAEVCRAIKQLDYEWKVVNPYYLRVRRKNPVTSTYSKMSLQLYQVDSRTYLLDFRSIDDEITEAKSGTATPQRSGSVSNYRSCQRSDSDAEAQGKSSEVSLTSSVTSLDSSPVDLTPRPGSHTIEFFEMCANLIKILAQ
Rho-associated protein kinase 1, sequence (Q13464 whole entry, the tested form may be a part): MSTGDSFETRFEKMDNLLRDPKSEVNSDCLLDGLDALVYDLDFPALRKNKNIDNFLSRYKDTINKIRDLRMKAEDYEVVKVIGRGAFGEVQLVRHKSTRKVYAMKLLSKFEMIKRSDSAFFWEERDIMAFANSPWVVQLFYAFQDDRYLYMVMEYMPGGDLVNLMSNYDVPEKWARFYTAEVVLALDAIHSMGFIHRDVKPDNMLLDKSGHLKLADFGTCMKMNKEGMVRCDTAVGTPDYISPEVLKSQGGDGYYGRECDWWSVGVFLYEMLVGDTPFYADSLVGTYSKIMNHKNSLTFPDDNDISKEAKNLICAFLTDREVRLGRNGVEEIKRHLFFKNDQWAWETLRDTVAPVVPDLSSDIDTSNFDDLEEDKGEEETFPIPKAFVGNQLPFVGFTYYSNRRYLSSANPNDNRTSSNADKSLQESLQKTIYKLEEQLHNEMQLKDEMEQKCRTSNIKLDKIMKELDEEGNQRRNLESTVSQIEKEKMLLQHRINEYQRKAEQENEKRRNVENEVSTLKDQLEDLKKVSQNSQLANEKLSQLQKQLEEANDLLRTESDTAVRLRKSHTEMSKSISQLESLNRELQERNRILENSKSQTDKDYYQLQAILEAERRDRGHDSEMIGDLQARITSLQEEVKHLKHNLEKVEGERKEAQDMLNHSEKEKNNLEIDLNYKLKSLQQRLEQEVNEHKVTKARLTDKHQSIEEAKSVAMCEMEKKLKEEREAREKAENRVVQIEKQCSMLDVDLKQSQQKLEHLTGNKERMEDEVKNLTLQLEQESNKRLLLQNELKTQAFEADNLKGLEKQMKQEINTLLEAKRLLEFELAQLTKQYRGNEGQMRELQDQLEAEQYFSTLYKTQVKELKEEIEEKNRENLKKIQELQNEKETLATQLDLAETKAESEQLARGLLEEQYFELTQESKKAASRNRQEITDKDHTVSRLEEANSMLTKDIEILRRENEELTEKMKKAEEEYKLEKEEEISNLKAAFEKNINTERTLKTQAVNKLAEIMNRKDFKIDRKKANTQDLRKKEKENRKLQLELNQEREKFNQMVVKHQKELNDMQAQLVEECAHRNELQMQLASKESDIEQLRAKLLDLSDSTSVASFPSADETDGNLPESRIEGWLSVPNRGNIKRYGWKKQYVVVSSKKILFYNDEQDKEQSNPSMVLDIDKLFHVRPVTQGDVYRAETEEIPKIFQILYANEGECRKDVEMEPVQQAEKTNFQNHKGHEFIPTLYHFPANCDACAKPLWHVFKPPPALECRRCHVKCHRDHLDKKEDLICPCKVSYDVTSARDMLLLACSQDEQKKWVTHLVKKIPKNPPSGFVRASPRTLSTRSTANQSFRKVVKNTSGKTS
Glycogen synthase kinase-3 beta, sequence (P49841 whole entry): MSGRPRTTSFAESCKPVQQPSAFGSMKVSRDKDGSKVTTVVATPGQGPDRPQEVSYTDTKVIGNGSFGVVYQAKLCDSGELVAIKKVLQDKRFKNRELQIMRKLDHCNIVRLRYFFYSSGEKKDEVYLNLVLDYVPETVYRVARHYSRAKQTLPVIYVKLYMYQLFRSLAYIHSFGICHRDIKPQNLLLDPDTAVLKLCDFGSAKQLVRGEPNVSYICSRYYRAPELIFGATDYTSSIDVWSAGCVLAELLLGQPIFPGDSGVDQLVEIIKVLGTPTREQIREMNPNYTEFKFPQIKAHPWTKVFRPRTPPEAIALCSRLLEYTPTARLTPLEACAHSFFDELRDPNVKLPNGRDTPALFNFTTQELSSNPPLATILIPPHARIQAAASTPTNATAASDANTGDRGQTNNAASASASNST

One may read the IC50 as the concentration needed to halve the response being measured. The term inhibition denotes the share of the control response that was lost under treatment. Turning to `CCn1cnc(NC(=O)c2ccoc2)c1`, 500 µM corresponded to half-maximal inhibition in [1] (IC50). The compound further had an inhibition in [2] of 51%.
As usually defined, the EC50 is the concentration that produces a half-maximal response. For `CC(C)n1cnnc1-c1nc(C(=O)Nc2cnn(C3COC3)c2)cs1`, the EC50 in experiment [3] came to 0.13 µM.
As to `Cc1ccc(C(=O)Nc2cccc(-c3nncn3C(C)C)n2)c(F)c1`, 0.055 µM corresponded to half-maximal inhibition in experiment [1] (IC50).
`CCn1cnc(NC(=O)c2ccccc2)c1` gave an inhibition in experiment [2] of 40%.
For the compound `CCn1cnc(NC(=O)c2cscn2)c1`, the IC50 in experiment [1] worked out at 100 µM. For the same compound, the inhibition in experiment [2] was 75%.
The pIC50 is the negative decadic logarithm of the IC50, by convention in mol/L. For the compound `CC(C)(C)c1ccc(C(=O)Nc2cn3cc(-n4ccnc4)ccc3n2)cc1`, the IC50 in [4] was 0.832 µM; in [5] it was 5.5 µM; in experiment [6], 11.5 µM; in experiment [7], above 20 µM; in experiment [8] it was 13.8 µM; in experiment [9] it was 0.155 µM. The IC50 in [10] was above 20 µM; in experiment [11], 6.46 µM; in [12], 4.9 µM; in experiment [13] it was above 20 µM; on Ephrin type-A receptor 3, above 20 µM. The same compound came in with a pIC50 against MAP kinase p38 below 4.7.
Regarding `Cc1cc(F)c(C(=O)Nc2ccccn2)cc1-n1cnc(C2CC2)c1`, in experiment [1], 6 µM corresponded to half-maximal inhibition (IC50).
`CCn1cnc(NC(=O)c2ccco2)c1` yielded an inhibition in experiment [2] of 35%.
Take `CC(C)n1cnnc1-c1nc(C(=O)Nc2ccccn2)cs1`: the IC50 in experiment [1] was 0.4 µM.
`COCCOc1ccnc(NC(=O)c2csc(-c3nncn3C(C)C)n2)c1`: in experiment [3], the EC50 was 0.14 µM.
On the same count and under the same terms, the result for `COCCNc1ccnc(NC(=O)c2csc(-c3nncn3C(C)C)n2)c1` reads 0.099 µM.
For the compound `CCn1cnc(NC(=O)C2CCC2)c1`, the inhibition in [2] is below 10%.
In experiment [1], `CCn1cc(NC(=O)c2csc(-c3nncn3C(C)C)n2)cn1` came in with an IC50 of 0.6 µM. Further, in experiment [3], the EC50 came to 0.6 µM.
For `COCCCn1cc(NC(=O)c2csc(-c3nncn3C(C)C)n2)cn1`, the EC50 in [3] stood at 0.065 µM.

The values above are taken from ChEMBL document CHEMBL4007491, “Structure-based drug design of novel ASK1 inhibitors using an integrated lead optimization strategy” (Bioorg Med Chem Lett, 2017).
